This is an account of results in US12115158B2, “Survivin-targeting anti-tumor agents and uses thereof” (Indiana University Research and Technology Corporation, priority 2020, dated 2024).

“Also recorded” adds a separate entry of the source. Where two headings read alike, the source gives them in different places.

The subject of data set [1] is C4-2 cells. Put plainly: Methylene blue survival assay. The class given is cell-based. The note with it: Homo sapiens, 72-hr treatment. The procedure:
(§1) Methylene blue survival assay. Prostate cancer cells were seeded 2000-3500 per well (cell line dependent) and treated with LQZ-7-3 for 72 hours. After 72 hours, media was then removed and cells were fixed with methanol for 30 minutes and subsequently stained with 100 μL of 1% methylene blue (diluted in 10 mM borate buffer) for 1 hour. The cells were then washed 3× with 10 mM borate buffer and then allowed to air dry for 30 minutes. 100 μL of 100% ethanol:0.1 M HCl (1:1) was added to each well to dissolve the methylene blue stain and absorbance was measured via spectrometry at […]. After normalization to DMSO controls, the percent viabilities were graphed and IC50 concentrations were determined using Prism.
(§2) LQZ-7I has enhanced cytotoxicity compared to the parent compound LQZ-7. These five newly synthesized LQZ-7 analogs were first tested for their cytotoxicity against prostate cancer cell lines C4-2 and PC-3 in comparison with their parent compound LQZ-7 using methylene blue assay. […] The other compounds performed worse with higher IC50 compared with LQZ-7.

Data set [2] relates to PC-3 cells. Put plainly: Methylene blue survival assay. The format is cell-based. The following applies: Homo sapiens, 72-hr treatment. The procedure: as §1, §2
In data set [3] the test system is PC-3. The note with it: MTT assay; data from the previous study [12]; cited from earlier work. A general note: Formazan colour is commonly taken as a measure of viable cells.
In data set [4] the test system is p53-large T antigen dimerization. Kind of data set: Mammalian two hybrid assay, specificity control. The following applies: same two hybrid assay.
Procedure: (§8) Survivin mammalian two hybrid assay. The mammalian two hybrid assay was performed utilizing the ClonTech Matchmaker Mammalian Two Hybrid Assay kit [13]. Briefly, the coding region (˜400 bp) of survivin was cloned in to two different plasmids, the pM plasmid containing the GAL4-DNA Binding Domain and the pVP16 plasmid containing an activation domain. […] These two plasmids (0.45 ug/well) along with the pGSEAP reporter plasmid (0.09 ug/well) and firefly luciferase plasmid (30 ng/well) were co-transfected in to 1×10^5 Du145 cells per well in a 12 well plate. Each condition was tested in triplicate. […] SEAP was detected utilizing the Takara ClonTech SEAP Great Escape chemiluminescence assay kit 2.0 and cells were lysed and luciferase was measured to control for transfection efficiency.
In data set [5] the target is survivin dimerization (Homo sapiens, UniProt O15392). Kind of data set: Survivin mammalian two hybrid assay (SEAP reporter, Du145 cells). The class given is cell-based. The note with it: 24 hours treatment.
survivin dimerization, sequence (O15392 whole entry): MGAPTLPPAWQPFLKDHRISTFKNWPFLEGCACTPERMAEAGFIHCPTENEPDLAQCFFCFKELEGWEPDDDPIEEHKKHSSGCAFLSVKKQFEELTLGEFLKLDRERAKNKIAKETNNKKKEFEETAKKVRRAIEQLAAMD
Procedure: as §8
Dimerization of survivin activates the expression of Secreted Embryonic Alkaline Phosphatase (SEAP) reporter gene, which can be monitored.
The subject of data set [6] is C4-2 vector cells. Put plainly: Methylene blue assay in vector control cells. The following applies: Homo sapiens; C4-2 vector control; read-out: IC50, vector-transfect control clone. The class given is cell-based. The procedure:
as §1
(§3) Survivin overexpression decreases cellular sensitivity to 7I. To corroborate above findings and to further investigate 7I inhibition of cancer cell survival via survivin, we generated a stable C4-2 clone with overexpression of HA-tagged survivin (FIG. 13D) and tested the effect of survivin over-expression on 7I cytotoxicity. […] Thus, 7I likely works via inhibiting survivin.
(§4) LQZ-7F-1 Cytotoxicity in Survivin Overexpression Cells. To determine if survivin overexpressing cells have a decreased sensitivity to LQZ-7F-1, C4-2 survivin stable overexpressing cells were once again used in a cell cytotoxicity assay.

Data set [7] concerns the target CIAP1 (Homo sapiens, UniProt Q13490). Kind of data set: IAP family member degradation assay. The class given is cell-based. The note with it: C4-2 and PC-3 cells, Western blot. The procedure: (§5) Survivin mammalian two hybrid assay. […] Each condition was tested in triplicate. […] IAP family member degradation assay.
(§6) Selectivity of 7I. […] To ensure 7I is selective to survivin, we tested its effect on other members of the IAP family by taking advantage of its induction of target loss. For this purpose, we performed Western blot analysis to determine the expression level of other IAPs including XIAP, CIAP1, and CIAP2 in addition to survivin following 7I treatment of C4-2 and PC-3 cells. […] However, it had no effect on the expression of XIAP, CIAP1, and CIAP2. Thus, 7I may be selective to its intended target survivin. 7I induces survivin degradation in a proteasome-dependent manner. […] Because 7I inhibited survivin dimerization as shown above, we hypothesized that 7I will also induce survivin degradation. To test this hypothesis, we examined survivin expression level in C4-2 and PC-3 cells following 7I treatments. […] We next performed a cycloheximide-chase experiment following 7I treatment to determine the half-life of survivin. […] Thus, 7I induces survivin degradation in both cell lines.
(A western blot detects proteins with antibodies after separation by electrophoresis.)

Data set [8] deals with CIAP2 (Homo sapiens, UniProt Q13489). Kind of data set: IAP family member degradation assay. The format is cell-based. The note with it: C4-2 and PC-3 cells, Western blot. The procedure:
as §5, §6

Data set [9] deals with XIAP (Homo sapiens, UniProt P98170). Kind of data set: IAP family member degradation assay. The format is cell-based. The following applies: C4-2 and PC-3 cells, Western blot. The procedure: as §5, §6
XIAP, sequence (P98170 whole entry): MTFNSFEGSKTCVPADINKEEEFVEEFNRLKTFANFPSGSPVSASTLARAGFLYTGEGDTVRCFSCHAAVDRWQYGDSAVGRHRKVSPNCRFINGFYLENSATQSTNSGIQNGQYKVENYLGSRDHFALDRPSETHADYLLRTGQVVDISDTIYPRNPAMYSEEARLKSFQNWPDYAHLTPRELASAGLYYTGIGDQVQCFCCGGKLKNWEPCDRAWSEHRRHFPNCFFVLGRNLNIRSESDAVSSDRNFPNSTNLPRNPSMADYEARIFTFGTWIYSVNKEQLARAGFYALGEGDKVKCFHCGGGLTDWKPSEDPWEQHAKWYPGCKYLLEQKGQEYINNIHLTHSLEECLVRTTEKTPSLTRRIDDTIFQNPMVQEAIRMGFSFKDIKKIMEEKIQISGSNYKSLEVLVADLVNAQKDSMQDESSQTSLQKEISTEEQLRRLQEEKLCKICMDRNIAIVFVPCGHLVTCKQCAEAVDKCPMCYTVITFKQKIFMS
Data set [10] concerns the target T1, survivin (Homo sapiens, UniProt O15392). Put plainly: Survivin level by Western blot in prostate cancer cells. The note with it: C4-2 and PC-3 cells.
Procedure: IAP family member degradation assay. For this experiment C4-2 or PC-3 cells were plated in a 10 cm dish at 1×10^6 cells per dish. 24 hours later the media was changed and cells were treated with DMO or LQZ-7-3. After 48 hours the cells were harvested, washed in PBS, and IAP family members level were evaluated using specific antibodies and Western Blotting.
The test system of data set [11] is PC-3 xenograft tumors. Put plainly: PC-3 xenograft model. The class given is in vivo, NSG male mice. The procedure:
PC-3 Xenograft Model. For the in vivo efficacy study, 3×10^6 PC-3 cells in media were implanted in to the hind flanks of 6 week old NSG male mice. After the tumor volume reached approximately […] in volume, the mice were randomized in to two groups (5 mice/group). The mice were either given 200 uL vehicle (90% corn oil/10% DMSO) or LQZ-7-3 100 mg/kg vial oral gavage every other day for a total of ten treatments. Before each treatment mouse bodyweight and tumor volume by caliper was measured. At the end of the study mice were sacrificed, and tumors were extracted for western blot analysis and […] staining of survivin.

Data set [12] relates to cleaved caspase 3. Kind of data set: Western blot analysis of cleaved caspase 3. The format is cell-based, human. The following applies: C4-2 and PC-3 cells. The text has this:
To determine if 7I-induced survivin degradation occurs in proteasome, we performed a rescue experiment by pre-treating cells using proteasome inhibitors MG132 and bortezomib for 1 hr prior to 7I treatment. […] Thus, 7I likely induces survivin degradation via proteasome. 7I induces apoptosis. It has been shown previously that depleting survivin or inhibiting survivin using dominant negative forms of survivin cause spontaneous apoptosis in cancer cells (ref) and that the parent compound LQZ-7 also induces apoptosis. We next tested if 7I would induce apoptosis by inhibiting survivin. For this purpose, we first performed Western blot analysis of cleaved caspase 3 in C4-2 and PC-3 cells following 7I treatments. […] We also performed annexin V staining of C4-2 and PC-3 cells as another indicator of apoptosis following 7I treatments. […] 7I inhibits growth of PC-3 xenograft tumors by inhibiting survivin. We next determined if 7I is active in suppressing tumor growth in vivo using a PC-3 xenograft model. […] The xenograft tumors in the 7I-treatment group trended to be smaller and pale in color than the control group (FIG. 16C-D). Thus, 7I may be effective in inhibiting tumor growth with little toxicity.
Apoptosis Studies. To determine if LQZ-7F-1 also induces apoptosis of cancer cells Flow Cytometry with Annexin V staining was performed in coordination with the Flow Cytometry Core. […]

Data set [13] in a line: Solubility in corn oil. The format is physicochemical.
Data set [14] has as its system stable C4-2 cells over expressing survivin. Put plainly: Methylene blue assay in survivin overexpression cells. The class given is cell-based. The following applies: Homo sapiens; stable C4-2 clone, HA-tagged survivin; read-out: IC50, survivin over-expression. The procedure: as §1, §3, §4
The target of data set [15] is T1, survivin. Put plainly: Proteasome inhibitors study (rescue of survivin loss). On the set-up: we examined survivin expression level in C4-2 and PC-3 cells following 7I treatments; endogenous in cells; host or cells: PC-3, C4-2. The following applies: PC-3 and C4-2 cells. The format is cell-based. The procedure: Proteasome Inhibitors Study. For the proteasome inhibitor rescue experiment, PC3 and C4-2 cells were seeded in 10-cm dishes at 8×10^5 cells/dish and cultured for 48 hours followed by replacement with fresh media containing DMSO control, 7 μmol/L MG132, or 70 nmol/L bortezomib and incubation for 2 hours. LQZ-7-3 was then added to the culture to final concentrations of 10 uM respectively and incubated for additional 24 hours. The cells were then harvested used for Western blot analysis of survivin.
To determine if 7I-induced survivin degradation occurs in proteasome, we performed a rescue experiment by pre-treating cells using proteasome inhibitors MG132 and bortezomib for 1 hr prior to 7I treatment. […] Thus, 7I likely induces survivin degradation via proteasome. 7I induces apoptosis. It has been shown previously that depleting survivin or inhibiting survivin using dominant negative forms of survivin cause spontaneous apoptosis in cancer cells (ref) and that the parent compound LQZ-7 also induces apoptosis. We next tested if 7I would induce apoptosis by inhibiting survivin. For this purpose, we first performed Western blot analysis of cleaved caspase 3 in C4-2 and PC-3 cells following 7I treatments. […] We next determined if 7I is active in suppressing tumor growth in vivo using a PC-3 xenograft model. […]

Data set [16] has as its system C4-2 cells. Put plainly: Apoptosis assay (Annexin V flow cytometry). The class given is cell-based, human. The following applies: 3 μM. The procedure:
(§7) Survivin Cycloheximide Half-Life Assay. The effect of LQZ-7-3 on survivin half-life was performed as previously described. Briefly, PC-3 or C4-2 cells were pretreated with 10 μmol/L cycloheximide for 1 hour followed by incubation with or without LQZ-7-3 10 uM for different times (0-6 hours). The cells were then harvested for Western Blot analysis for survivin. Apoptosis Assay. The apoptosis assay was performed as detailed in the Anenxin V-FITC kit from BioVision. Briefly, apoptosis was induced by treatment with LQZ-7-3 and cells were collected by centrifugation. Cells were resuspended in 500 ul of 1× binding buffer and 5 ul of annexin V-FITC and 5 ul of propidium iodide (50 ug/ml) was added to the cells. The cells were incubated at room temperature for 5 minutes in the dark then subjected to quantification by flow cytometry.
For orientation: Flow cytometry measures light scatter and fluorescence of single cells or particles in a stream.

Data set [17] concerns PC-3 cells. Put plainly: Apoptosis assay (Annexin V flow cytometry). The following applies: 3 μM. The format is cell-based, human. The procedure:
as §7

Where [18] appears, read: read-out: IC50 against C4-2 cells.
[19] abbreviates: read-out: IC50 against PC-3 cells.

For orientation: IC50 means the concentration needed to halve the response being measured.

T1 sequence (O15392 whole entry): as the sequence (O15392 whole entry) above
CIAP2, sequence (Q13489 whole entry): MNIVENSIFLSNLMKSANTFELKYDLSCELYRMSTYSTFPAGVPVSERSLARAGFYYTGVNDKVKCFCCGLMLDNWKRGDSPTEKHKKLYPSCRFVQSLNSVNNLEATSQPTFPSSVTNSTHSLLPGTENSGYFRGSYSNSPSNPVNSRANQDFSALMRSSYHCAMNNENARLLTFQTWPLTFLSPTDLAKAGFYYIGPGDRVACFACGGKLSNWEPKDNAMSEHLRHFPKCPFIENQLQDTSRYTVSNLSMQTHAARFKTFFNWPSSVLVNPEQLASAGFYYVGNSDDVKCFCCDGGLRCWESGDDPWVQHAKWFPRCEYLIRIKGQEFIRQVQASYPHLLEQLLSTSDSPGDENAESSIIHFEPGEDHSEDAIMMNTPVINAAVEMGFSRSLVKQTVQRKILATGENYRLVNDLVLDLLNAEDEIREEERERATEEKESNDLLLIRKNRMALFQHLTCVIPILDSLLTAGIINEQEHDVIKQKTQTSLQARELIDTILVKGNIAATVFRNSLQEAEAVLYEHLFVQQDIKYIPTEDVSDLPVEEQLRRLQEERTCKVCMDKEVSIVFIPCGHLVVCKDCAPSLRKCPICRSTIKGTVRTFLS
CIAP1, sequence (Q13490 whole entry): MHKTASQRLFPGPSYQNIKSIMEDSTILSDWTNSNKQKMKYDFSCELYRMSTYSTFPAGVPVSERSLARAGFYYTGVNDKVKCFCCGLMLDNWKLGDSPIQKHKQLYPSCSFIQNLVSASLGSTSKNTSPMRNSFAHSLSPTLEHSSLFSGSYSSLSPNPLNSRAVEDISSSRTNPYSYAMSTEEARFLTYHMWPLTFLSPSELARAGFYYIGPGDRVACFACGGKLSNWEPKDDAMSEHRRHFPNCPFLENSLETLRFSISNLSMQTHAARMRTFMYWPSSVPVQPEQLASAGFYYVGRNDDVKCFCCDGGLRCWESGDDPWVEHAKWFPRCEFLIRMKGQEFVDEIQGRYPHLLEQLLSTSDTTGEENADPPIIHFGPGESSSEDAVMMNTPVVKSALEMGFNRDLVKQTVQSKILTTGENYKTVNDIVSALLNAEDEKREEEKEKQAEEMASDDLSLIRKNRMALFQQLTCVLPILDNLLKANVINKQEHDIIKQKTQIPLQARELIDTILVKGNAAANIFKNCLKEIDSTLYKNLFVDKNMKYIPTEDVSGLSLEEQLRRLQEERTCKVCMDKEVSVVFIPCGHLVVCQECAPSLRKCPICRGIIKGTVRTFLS

On to `O=C(Nc1nc2ccccc2nc1Nc1ccc(F)cc1)c1ccc2c(c1)OCO2` [LQZ-7G, N-(3-((4-fluorophenyl)amino)quinoxalin-2-yl)benzo[d][1,3]dioxole-5-carboxamide], for which the IC50 was determined as 14.3 µM in data set [1] (read-out: IC50 (μm) C4-2) and 20.7 µM in [2] (read-out: IC50 (μm) PC-3).
Turning to `Cc1cccc(Nc2nc3nonc3nc2N/N=C/c2ccc(-c3ccc(Cl)c([N+](=O)[O-])c3)o2)c1C` [LQZ-7A], in [3], the IC50 was 7.2 ± 2.7 µM.
With `Cc1cccc(Nc2nc3nonc3nc2N/N=C/c2ccc(-c3cccc(C(=O)O)c3)o2)c1C` [LQZ-7], in data set [4], the “p53-large T antigen dimerization” value is “no effect”. The IC50 turned out to be 9.1 µM in data set [1] (read-out: IC50 (μm) C4-2), 9.1 µM in data set [1] (setting [18]), 8.1 µM in data set [2] (read-out: IC50 (μm) PC-3) and 8.1 µM in [2] (setting [19]).
For the compound `CCOC(=O)c1ccc(Nc2nc3nonc3nc2N/N=C/c2c[nH]nc2-c2ccccc2)cc1` [LQZ-7C], the IC50 in data set [3] is 3.5 µM.
In the case of `Cc1cccc(Nc2nc3ccccc3nc2Nc2cccc(C)c2C)c1C` [LQZ-7J, N^2,N^3-bis(2,3-dimethylphenyl)quinoxaline-2,3-diamine], the results for the IC50 in data set [1] (read-out: IC50 (μm) C4-2) and in [2] (read-out: IC50 (μm) PC-3) were 17.6 µM and 24.8 µM, respectively.
Regarding `Cc1cccc(Nc2nc3nonc3nc2N/N=C/c2cc3c(cc2[N+](=O)[O-])OCO3)c1C` [LQZ-7D], the IC50 in data set [3] was 2.6 ± 0.3 µM.
`Cc1ccc(-c2ccc(/C=N/Nc3nc4nonc4nc3Nc3cccc(Br)c3)o2)cc1Cl` [LQZ-7B]: the IC50 in data set [3] was 3.3 ± 0.2 µM.
Turning to `O=C(Nc1nc2ccccc2nc1Nc1ccc(F)cc1)c1ccccc1` [LQZ-7H, N-(3-((4-fluorophenyl)amino)quinoxalin-2-yl)benzamide], the half-maximal inhibitory concentration (IC50) in data set [1] (read-out: IC50 (μm) C4-2) amounted to 12.7 µM; in [2] (read-out: IC50 (μm) PC-3), 19.7 µM.
On to `Fc1ccc(Nc2nc3ccccc3nc2Nc2ccc(F)cc2)cc1` [LQZ-7I, N^2,N^3-bis(4-fluorophenyl)quinoxaline-2,3-diamine], for which the “SEAP reporter expression / survivin dimerization” value in data set [5] was “significantly decreased; also recorded: significantly inhibited”. Moreover, the IC50 is ~2 µM in data set [6]; 3.1 µM in data set [1] (read-out: IC50 (μm) C4-2); 3.1 µM in data set [1] (setting [18]); 4.8 µM in data set [2] (read-out: IC50 (μm) PC-3); 4.8 µM in [2] (setting [19]); ~7 µM in data set [14]. In addition, the “p53-large T antigen dimerization” value in data set [4] is reported as “no effect”. Moreover, the “expression of CIAP1” value in data set [7] is “no effect”. In addition, the “expression of CIAP2” value in data set [8] was “no effect”. Also, the “expression of XIAP” value in data set [9] is listed as “no effect”. For the same compound, the “survivin expression level after treatment” value in [10] is given as “reduced; also recorded: time-dependent survivin loss”. In data set [11] (100 mg/kg oral gavage), the body weight entry is on record as “lacking changes”. For the same compound, the “wet weight of major organs at the end of the study” value in [11] (100 mg/kg oral gavage) is listed as “lacking changes”. Besides, the tumor growth entry in [11] (100 mg/kg oral gavage every other day, ten treatments) is recorded as “significantly suppressed”. Further, the “survivin expression in xenograft tumors” value in [11] (Western blot and immunofluorescence staining, treatment vs control group) is listed as “drastically reduced”. Besides, the “cleaved caspase 3 levels” value in data set [12] was “induced cleavage of caspase 3 in a dose dependent manner”. Moreover, the “solubility in corn oil” value in data set [13] is listed as “soluble”. Moreover, the “compound-induced survivin loss after pretreatment with proteasome inhibitors MG132 and bortezomib” value in data set [15] is recorded as “significantly reversed”. The “apoptosis (annexin V staining)” value in [16] is listed as ~48%; in data set [17] it was ~39%.
